Measured values taken from patent US9623046B2, “Amphiphilic Janus-dendrimers” (The Trustees Of The University Of Pennsylvania, priority 2009, dated 2017).
Read-outs that look alike come from different tables or passages of the source.

Columns and labels:
[1] = polymersomes and lipids (liposomes), comparison; cited from earlier work
Melittin = Melittin (Apis mellifera, UniProt P01501); conditions: Melittin 63 μL, 300 μM into 2 mL suspension
[2] = tested on: human umbilical vein endothelial cells (HUVECs); experiment: Cell viability, CellTiter-Blue assay; format: cell-based; conditions: CellTiter-Blue, 1, 2 and 4 h, compared to control
Procedure: Since endothelial cells are the first point of contact for intravenous drug formulations, the toxicity of the dendrosomes was evaluated in vitro on human umbilical vein endothelial cells (HUVECs). HUVECs were cultured in EGM Endothelial Growth Media (LONZA) supplemented with bovine brain extract (BBE) with heparin, h-EGF, hydrocortisone, gentamicin, amphotericin B (GA-1000), and fetal bovine serum (FBS). Cells were maintained in plastic culture flasks at 37° C. in a humidified atmosphere containing 5% CO2 and were further subcultured when the flasks were 70% to 90% confluent. The passage number of the cells for the HUVECs in vitro studies was 5-8. The investigation of toxicity of dendrosomes and viability of the cells was assessed fluorometrically by determining the number of viable cells present in multiwell plates. Cell viability was determined using the indicator dye resazurin, which is reduced by viable cells to a highly fluorescent form resorufin according to Scheme S17. […] The CellTiter-Blue Cell Viability Assay was obtained from Promega.
HUVECs were plated at a density of 3,200 cells per well (10,000 cells/cm^2) in 96 well tissue culture plates and allowed to adhere overnight. Culture media was removed from the wells and replaced with 250 μL of either: 100% media, 94% media/6% PBS buffer, 87.5% media/12.5% PBS buffer, 75% media/25% PBS buffer, 100% PBS buffer, and various concentrations of sterile dendrosomes and polymersomes ranging from 0.25 mg to 0.0625 mg in the three concentrations of media/PBS, and maintained at 37° C. in a humidified atmosphere of 5% CO2. The dendrosomes and polymersomes were prepared by film the hydration method as described in section S5.1 and extruded 25 times through 100 nm polycarbonate membrane. Dendrosomes and polymersomes were sterilized by exposing them for […] min to UV irradiation. […] The fluorescence intensity at 590 nm emanating from the wells when excited at 560 nm was then determined using a TECAN Inifinite2000 plate reader.

[3] = Dynamic light scattering of dendrosomes formed by ethanol injection (size, polydispersity); format: physicochemical
Procedure: Dynamic light scattering measurements (DLS) were performed with a Malvern Instruments particle sizer (Zetasizer® Nano S, Malvern Instruments, UK).
Small unilamellar dendrosomes of <200 nm size were obtained by fast injection of 100 μL of ethanol (THF, acetone, dioxane, acetonitrile or DMSO for the solvent dependence studies) solution containing 10 mg of Janus-dendrimer dissolved in 1 mL of solvent into various volumes of milippore water (0.5 mL-5 mL) giving final Janus-dendrimer concentrations of 0.1-2 mg/mL. Dendrosomes obtained via injection method were used without further manipulation to study the influence of concentration, solvent, temperature and time on size and polydispersity by dynamic light scattering (DLS) as well as for the characterization of dendrosome morphologies via cryogenic transmission electron microscopy (cryo-TEM).
Dendrosomes were formed according to the general method discussed herein at final concentrations from 0.5-20 mg/mL. DLS measurements were carried out immediately following injection and repeated after 60 min. […] Monomodal distributions were obtained from 0.5-7 mg/mL and bimodal distributions from 10-20 mg/mL. […] At concentrations over […], multimodal size distributions and increased flocculation in time was observed.
Dendrosomes were formed according to the general method discussed herein at final concentrations of 0.5 mg/mL aqueous solution.

[4] = Micropipette aspiration of giant unilamellar dendrosomes (mechanical properties); format: physicochemical
Procedure: The elastic properties of dendrosome membranes were determined by micropipette aspiration following an analogous procedure described previously (Needham, Biophys. J. 58, 997-1009 (1990)). Giant unilamelar (˜[…] diameter) dendrosomes were prepared by Teflon film hydration as described herein and dispersed into iso-osmotic ultrapure water. Glass micropipettes with inner diameter from ˜3 μm to ˜10 μm were filled with iso-osmotic ultrapure water and connected to an aspiration station mounted on the side of a Zeiss inverted microscope, equipped with a manometer. The pipettes were used to manipulate the dendrosomes and to apply well-defined stress to the wall by inducing suction tension on their membranes.
The micropipette suction pressure is controlled in the range of microatmospheres and tenths of atmospheres (0.1 N/m^2 to 10000 N/m^2). The tension results in deformation and consequently provides direct measurements of the elastic moduli, which characterizes the membrane area expansion and bending, together with other parameter that characterize the tensile failure of the vesicle membrane according to the equations (1) and (2): Ka=Δτ/Δα (1) Es=Ka(αc)^2/2 (2) were Ka=elastic area expansion modulus; Δτ=fractional tension; τs=membrane tension at failure; Δα=fractional increase in membrane area; αc=critical areal strain-fractional increase in membrane area at failure, and Es=energy stored at failure Results are presented in the Table below.

[5] = Miscibility of Janus-dendrimers with phospholipids (microscopy, DSC); format: physicochemical; conditions: 1:1 ratio, film hydration
[6] = concentrations of 0.5-2 mg/mL, unimodal distributions

Melittin, sequence (P01501 44-69 limits assumed): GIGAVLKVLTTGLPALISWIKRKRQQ

| Compound | cell viability / toxicity [2] | Critical αc (critical areal strain) [4] | Energy stored at failure [4] [mJ/m^2] | Ka (elastic area expansion modulus) [4] [mN/m] | Lysis Tension τs [4] [mN/m] | further results |
| --- | --- | --- | --- | --- | --- | --- |
| CCCCCCCCCCCCCC(=O)OC[C@H](COP(=O)([O-])OCC[N+](C)(C)C)OC(=O)CCCCCCCCCCCCC [DMPC] | – | – | – | – | – | Ka (elastic area expansion modulus) [1]: 234 mN/m |
| CCCCCCCC/C=C\CCCCCCCC(=O)O[C@H](COC(=O)CCCCCCCCCCCCCCCCC)COP(=O)([O-])OCC[N+](C)(C)C [SOPC, 1-Stearoyl-2-Oleoyl-Sn-Glycero-3-Phosphatidylcholine, reference compound] | – | – | – | – | – | CD signal after Melittin addition (Melittin): showed CD signal |
| (3,4)12G1-PE-(3,4,5)-3EO-G1-(OCH3)6 [Dendrosome 1] | excellent biocompatibility | – | – | – | – | – |
| (3,4)12G1-PE-BMPA-G2-(OH)8 [(3,4)12G1-PE-BMPA-(OH)8] | – | 0.04 | 0.42 | 961 | 20.4 | PDI [3, 6]: 0.07-0.2; sizes [3, 6]: 111-175 nm |
| (3,4,5)12G1-PE-(3,4,5)-3EO-G1-(OH)6 | excellent biocompatibility | 0.04 | 0.27 | 267.5 | 12.7 | – |
| (3,4,5)12G1-PE-BMPA-G2-(OH)8 [(3,4,5)12G1-PE-BMPA-(OH)8] | – | 0.06 | 0.11 | 42.44 | 0.88 | – |
| (3,5)12G1-PE-(3,4)-3EO-G1-(OH)4 | – | 0.06 | 0.73 | 582.5 | 15.11 | – |
| (3,5)12G1-PE-(3,4,5)-3EO-G1-(OCH3)6 [Dendrosome 2] | excellent biocompatibility | – | – | – | – | – |
| (3,5)12G1-PE-BMPA-G2-(OH)8 [(3,5)12G1-PE-BMPA-(OH)8] | – | 0.03 | 0.69 | 976 | 15.5 | Z-average size ([3]; concentration 0.5 mg/mL): 94 nm; polydispersity ([3]; concentration 0.5 mg/mL): 0.04; Z-average size ([3]; concentration 10 mg/mL): 330 nm; polydispersity ([3]; concentration 10 mg/mL): 0.17; PDI ([3]; concentration of 20 mg/mL): 0.4; sizes ([3]; concentration of 20 mg/mL): 1004 nm; sizes ([3]; concentrations of 0.5-10 mg/mL): 94-330 nm; miscibility with SOPC [5]: confirmed by DSC; CD signal after Melittin addition (Melittin): showed CD signal |
| DAPC | – | – | – | – | – | Critical αc (critical areal strain) [1]: 0.04; Ka (elastic area expansion modulus) [1]: 57 mN/m; Lysis Tension τs [1]: 2.3 mN/m |
